From patent US9908890B2, “Selective inhibitors of constitutive androstane receptor” (ST. JUDE CHILDREN'S RESEARCH HOSPITAL, priority 2014, dated 2018) come the findings set out here.

Read-outs that look alike come from different tables or passages of the source. A value given as a limit tells only on which side of the number the result lay.

The inhibition is the relative decrease from the control value, in per cent. As a reminder, the IC50 is the concentration that inhibits the measured activity by half.

This assay concerns the target T1, GST-hCAR-LBD (Homo sapiens, UniProt Q14994).
T1 construct: purchased Life Technologies (Carlsbad, Calif.) or Invitrogen (Carlsbad, Calif.)
T1 sequence (Q14994 109-352 limits assumed): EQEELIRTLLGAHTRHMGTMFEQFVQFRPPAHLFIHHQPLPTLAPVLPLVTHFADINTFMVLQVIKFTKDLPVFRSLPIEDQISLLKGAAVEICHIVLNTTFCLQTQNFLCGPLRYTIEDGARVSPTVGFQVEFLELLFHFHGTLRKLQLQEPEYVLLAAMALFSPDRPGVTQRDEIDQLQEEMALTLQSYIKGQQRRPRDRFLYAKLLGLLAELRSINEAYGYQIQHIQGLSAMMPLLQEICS
Nature of the assay: CoAct binding inverse agonist assay (LanthaScreen TR-FRET, fluorescent PGC-1α coactivator recruitment/repression). Type of assay: biochemical. The note with it: for inhibition at 70 µM: read-out: % Inhibition (70 μM); for fold increase of IC50 (decrease of activity) relative to lead chemical 1 (CINPA1) / fold increase of CAR inverse agonistic activity (potency) over lead chemical 1 (CINPA1): relative to chemical 1. The method, then: The effect of putative CAR ligands on the recruitment or repression of PGC-1α binding to hCAR was evaluated by using a LanthaScreen TR-FRET assay according to the manufacturer's instructions. […] The final DMSO concentration was 0.7% in all assay wells. […] The % Inhibition values were then plotted for individual chemicals. When applicable, the graphic software GraphPad Prism 5.04 (GraphPad Software, La Jolla, Calif., USA) was used to fit the data into a one-site competitive-binding equation to derive IC50 values. […] The assay plates were then briefly spun down and incubated for 1 hour at room temperature (25° C.). […] The final DMSO concentration was 0.7% in all assay wells. […] The % Inhibition values were then plotted for individual chemicals. When applicable, the graphic software GraphPad Prism 5.04 (GraphPad Software, La Jolla, Calif., USA) was used to fit the data into a one-site competitive-binding equation to derive IC50 values.

Where [1] appears, read: 70 μM compound, 42 μM clotrimazole = 100%, DMSO = 0%.
[2] abbreviates: read-out: IC50 (CAR inverse agonistic activity).

On to `CCOC(=O)Nc1ccc2c(c1)N(C(=O)CN1[C@H]3CC[C@@H]1CC3)c1ccccc1CC2` [Compound 20, ethyl (5-(2-((1s,4s)-7-azabicyclo[2.2.1]heptan-7-yl)acetyl)-10,11-dihydro-5H-dibenzo[b,f]azepin-3-yl)carbamate], for which the inhibition at 70 µM under setting [1] came out at 118%.

Consider `CC(C)OC(=O)Nc1ccc2c(c1)N(C(=O)COCC(C)(C)C)c1ccccc1CC2` [Compound 32, isopropyl (5-(2-(neopentyloxy)acetyl)-10,11-dihydro-5H-dibenzo[b,f]azepin-3-yl)carbamate], for which the IC50 under setting [2] is 21 nM.

Take `CC(C)OC(=O)Nc1ccc2c(c1)N(C(=O)c1cccs1)c1ccccc1CC2` [Compound 64]: the IC50 (Table 4, read-out: IC50) amounted to 12 nM.

For `CC(C)OC(=O)Nc1ccc2c(c1)N(C(=O)COC1CCCCC1)c1ccccc1CC2` [Compound 36, isopropyl (5-(2-(cyclohexyloxy)acetyl)-10,11-dihydro-5H-dibenzo[b,f]azepin-3-yl)carbamate], the IC50 under setting [2] came out at 24 nM.

`CCOC(=O)Nc1ccc2c(c1)N(C(=O)CCN1CCOCC1)c1ccccc1CC2` [compound 85]: the IC50 under setting [2] worked out at 320 nM.

As to `O=C(Nc1ccc2c(c1)N(C(=O)c1cccs1)c1ccccc1CC2)OC1CCCCC1` [Compound 68], the IC50 (Table 4, read-out: IC50) is 19 nM.

For the compound `CC(C)OC(=O)Nc1ccc2c(c1)N(C(=O)COC1COC1)c1ccccc1CC2` [Compound 49], under “Table 4, read-out: IC50”, the IC50 stood at 660 nM.

Turning to `CCOC(=O)Nc1ccc2c(c1)N(C(=O)CCN1CCCC1)c1ccccc1CC2` [Compound 23], the inhibition at 70 µM stood at 118%. The IC50 under setting [2] was found to be 3180 nM.

As to `CCNC(=O)Nc1ccc2c(c1)N(C(=O)CN(CC)CC)c1ccccc1CC2` [Compound 5, 1-(5-(diethylglycyl)-10,11-dihydro-5H-dibenzo[b,f]azepin-3-yl)-3-ethylurea], the inhibition at 70 µM under setting [1] is 94.9%. In addition, under setting [2], the IC50 is 14400 nM.

Take `CCCN(CCC)CC(=O)N1c2ccccc2CCc2ccc(NC(=O)OC(C)(C)C)cc21` [Compound 37, tert-butyl (5-(dipropylglycyl)-10,11-dihydro-5H-dibenzo[b,f]azepin-3-yl)carbamate]: the IC50 by setting is: (Table 4, read-out: IC50) 153 nM; under setting [2], 150 nM.

In the case of `O=C(Nc1ccc2c(c1)N(C(=O)Cn1cccc1)c1ccccc1CC2)N1CCCCC1` [Compound 47], the IC50 (Table 4, read-out: IC50) was 99 nM.

For `CCOCC(=O)N1c2ccccc2CCc2ccc(NC(=O)OC(C)C)cc21` [Compound 29, isopropyl (5-(2-ethoxyacetyl)-10,11-dihydro-5H-dibenzo[b,f]azepin-3-yl)carbamate], the IC50 under setting [2] came out at 11400 nM.

As to `CC(C)OC(=O)Nc1ccc2c(c1)N(C(=O)COC1CCC1)c1ccccc1CC2` [Compound 34, isopropyl (5-(2-cyclobutoxyacetyl)-10,11-dihydro-5H-dibenzo[b,f]azepin-3-yl)carbamate], the IC50 under setting [2] was 38 nM.

Take `CCOC(=O)Nc1ccc2c(c1)N(C(=O)CNC(C)(C)C)c1ccccc1CC2` [compound 83]: the “fold increase of IC50 (decrease of activity) relative to lead chemical 1 (CINPA1)” value amounted to 5 fold. Also, the IC50 under setting [2] turned out to be 3630 nM.

With `O=C(Nc1ccc2c(c1)N(C(=O)Cn1cccc1)c1ccccc1CC2)OC1CC1` [Compound 41, cyclopropyl (5-(2-(1H-pyrrol-1-yl)acetyl)-10,11-dihydro-5H-dibenzo[b,f]azepin-3-yl)carbamate], the IC50 under setting [2] was determined as 22 nM.

As to `CC(C)OC(=O)Nc1ccc2c(c1)N(C(=O)CCN1CCN(CCO)CC1)c1ccccc1CC2` [compound 88], the IC50 is, setting by setting: (Table 6, CINPA1 and commercially available analogs, read-out: IC50) > 70000 nM; under setting [2], > 70000 nM.

In the case of `CC(C)(C)COC(=O)N1c2ccccc2CCc2ccc(NC(=O)OC3CCCCC3)cc21` [Compound 61], the IC50 (Table 4, read-out: IC50) was 41 nM.

As for `CCOC(=O)Nc1ccc2c(c1)N(C(=O)CCN(C)C)c1ccccc1CC2` [compound 86], the IC50 under setting [2] came out at 5010 nM.

As for `CCOC(=O)Nc1ccc2c(c1)N(C(=O)CN1CCN(C)CC1)c1ccccc1CC2` [compound 81], the “fold increase of IC50 (decrease of activity) relative to lead chemical 1 (CINPA1)” value came to 56 fold. Moreover, the IC50 under setting [2] is 38800 nM.

Take `CCOC(=O)Nc1ccc2c(c1)N(C(=O)CNC(C)(C)CC)c1ccccc1CC2` [Compound 21, ethyl (5-(tert-pentylglycyl)-10,11-dihydro-5H-dibenzo[b,f]azepin-3-yl)carbamate]: the “fold increase of IC50 (decrease of activity) relative to lead chemical 1 (CINPA1)” value came to 3 fold. Under setting [1], the inhibition at 70 µM worked out at 116%. In addition, under setting [2], the half-maximal inhibitory concentration (IC50) is 2060 nM.

For the compound `CC(C)OC(=O)Nc1ccc2c(c1)N(C(=O)n1cccc1)c1ccccc1CC2` [Compound 55], the IC50 (Table 4, read-out: IC50) is 18 nM.

As for `CC(C)(C)OC(=O)Nc1ccc2c(c1)N(C(=O)CN1CCCCC1)c1ccccc1CC2` [Compound 38, tert-butyl (5-(2-(piperidin-1-yl)acetyl)-10,11-dihydro-5H-dibenzo[b,f]azepin-3-yl)carbamate], the IC50 under setting [2] was determined as 220 nM.

`CCN(CC)C(=O)N1c2ccccc2CCc2ccc(NC(=O)OC(C)C)cc21` [Compound 54]: for the setting “Table 4, read-out: IC50”, the IC50 was found to be 19 nM.

Consider `O=C(Nc1ccc2c(c1)N(C(=O)c1ccco1)c1ccccc1CC2)OC1CCCCC1` [Compound 69], for which, for the setting “Table 4, read-out: IC50”, the IC50 came out at 50 nM.

Take `CCOC(=O)Nc1ccc2c(c1)N(C(=O)CN1C(C)(C)CCCC1(C)C)c1ccccc1CC2` [Compound 14, ethyl (5-(2-(2,2,6,6-tetramethylpiperidin-1-yl)acetyl)-10,11-dihydro-5H-dibenzo[b,f]azepin-3-yl)carbamate]: the inhibition at 70 µM under setting [1] amounted to 90.5%. For the same compound, under setting [2], the IC50 stood at 4080 nM. For the setting “relative to chemical 18”, the “fold IC50 relative to chemical 18” value is on record as “over 6 fold”.

`CC(C)OC(=O)Nc1ccc2c(c1)N(C(=O)c1ccco1)c1ccccc1CC2` [Compound 65]: for the setting “Table 4, read-out: IC50”, the IC50 worked out at 75 nM.

As to `O=C(Nc1ccc2c(c1)N(C(=O)Cn1cccc1)c1ccccc1CC2)OC1CCCCC1` [Compound 44, cyclohexyl (5-(2-(1H-pyrrol-1-yl)acetyl)-10,11-dihydro-5H-dibenzo[b,f]azepin-3-yl)carbamate], the “fold increase of CAR inverse agonistic activity (potency) over lead chemical 1 (CINPA1)” value is reported as “approximately 59 fold”. Besides, the IC50 under setting [2] worked out at 12 nM.

With `CCOC(=O)Nc1ccc2c(c1)N(C(=O)CN(CC)CC)c1ccccc1CC2` [Compound 1, ethyl (5-(diethylglycyl)-10,11-dihydro-5H-dibenzo[b,f]azepin-3-yl)carbamate], under setting [1], the inhibition at 70 µM is 116%. Also, the IC50 by setting is: (Table 4, read-out: IC50) 690 nM; under setting [2], 690 nM.

Regarding `CCOC(=O)Nc1ccc2c(c1)N(C(=O)CN1CCCCC1)c1ccccc1CC2` [Compound 18, ethyl (5-(2-(piperidin-1-yl)acetyl)-10,11-dihydro-5H-dibenzo[b,f]azepin-3-yl)carbamate], the inhibition at 70 µM under setting [1] was determined as 119%. Under setting [2], the IC50 was determined as 620 nM.

For `CCC(C)OCC(=O)N1c2ccccc2CCc2ccc(NC(=O)OC(C)C)cc21` (stereo not drawn) [Compound 31, isopropyl (5-(2-(sec-butoxy)acetyl)-10,11-dihydro-5H-dibenzo[b,f]azepin-3-yl)carbamate], the IC50 under setting [2] was 35 nM.

Turning to `CCCN(CCC)CC(=O)N1c2ccccc2CCc2ccc(NC(=O)OCC)cc21` [Compound 11, ethyl (5-(dipropylglycyl)-10,11-dihydro-5H-dibenzo[b,f]azepin-3-yl)carbamate], the “fold increase of CAR inverse agonistic activity (potency) over lead chemical 1 (CINPA1)” value was determined as 3 fold. Under setting [1], the inhibition at 70 µM is 113%. The IC50 under setting [2] was determined as 210 nM.

As to `CCCN(CCC)CC(=O)N1c2ccccc2CCc2ccc(NC(=O)OC(C)C)cc21` [Compound 28, isopropyl (5-(dipropylglycyl)-10,11-dihydro-5H-dibenzo[b,f]azepin-3-yl)carbamate], the concentration for half-maximal inhibition (IC50) under setting [2] is 120 nM.

For `O=C(Nc1ccc2c(c1)N(C(=O)Cn1cccc1)c1ccccc1CC2)OC1CCCC1` [Compound 43, cyclopentyl (5-(2-(1H-pyrrol-1-yl)acetyl)-10,11-dihydro-5H-dibenzo[b,f]azepin-3-yl)carbamate], the IC50 under setting [2] was 14 nM.

Consider `CCNCC(=O)N1c2ccccc2CCc2ccc(NC(=O)OCC)cc21` [Compound 71], for which the “% Inhibition (70 μM)” value under setting [1] turned out to be 77.6%. For the setting “Table 4, read-out: IC50”, the IC50 turned out to be 28000 nM.

As for `CCCC(=O)Nc1ccc2c(c1)N(C(=O)CN(CC)CC)c1ccccc1CC2` [Compound 2, N-(5-(diethylglycyl)-10,11-dihydro-5H-dibenzo[b,f]azepin-3-yl)butyramide], the inhibition at 70 µM under setting [1] worked out at 106%. Also, the IC50 (quoted in SAR text in nM, read-out: IC50 (CAR inverse agonistic activity)) came out at 2320 nM.

Take `CCN(CC)CC(=O)N1c2ccccc2CCc2ccc(NC(=O)NC(C)C)cc21` [Compound 6, 1-(5-(diethylglycyl)-10,11-dihydro-5H-dibenzo[b,f]azepin-3-yl)-3-isopropylurea]: under setting [1], the inhibition at 70 µM was found to be 107%. Besides, the IC50 under setting [2] came to 4930 nM.

With `CC(C)OC(=O)Nc1ccc2c(c1)N(C(=O)OCC(C)(C)C)c1ccccc1CC2` [Compound 57], the IC50 (Table 4, read-out: IC50) is 25 nM.

For the compound `CC(C)OC(=O)Nc1ccc2c(c1)N(C(=O)CN1CCCCC1)c1ccccc1CC2` [Compound 27, isopropyl (5-(2-(piperidin-1-yl)acetyl)-10,11-dihydro-5H-dibenzo[b,f]azepin-3-yl)carbamate], under setting [2], the IC50 came out at 250 nM.
